Measured values reported in BindingDB's records for doi:10.7270/Q2TX3CTT (Broad Institute, 2010).

Molecular target: Glycogen synthase kinase-3 beta (Homo sapiens, UniProt P49841)
Test: GSK3beta kinase inhibitor potency, dose response, biochemical, luminescence, cell-free homogeneous, retest (AID 434954)

Chain of Glycogen synthase kinase-3 beta (P49841 whole entry): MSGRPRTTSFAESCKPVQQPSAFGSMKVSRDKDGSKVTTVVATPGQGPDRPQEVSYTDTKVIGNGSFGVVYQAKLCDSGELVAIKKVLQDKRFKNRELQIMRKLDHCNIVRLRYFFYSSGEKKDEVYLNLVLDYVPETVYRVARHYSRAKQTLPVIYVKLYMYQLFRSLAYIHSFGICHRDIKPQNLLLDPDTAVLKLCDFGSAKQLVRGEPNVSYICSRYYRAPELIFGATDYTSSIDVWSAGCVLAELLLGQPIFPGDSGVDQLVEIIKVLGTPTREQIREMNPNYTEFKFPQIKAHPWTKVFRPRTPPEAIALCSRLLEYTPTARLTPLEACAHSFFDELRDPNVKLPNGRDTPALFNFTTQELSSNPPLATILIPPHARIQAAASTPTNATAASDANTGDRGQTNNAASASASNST

Compound | EC50
Cc1ccc(S(=O)(=O)N2CCN(CC(=O)NN=Cc3ccco3)CC2)cc1 [MLS000590873] | > 300 µM
Cc1[nH]n(-c2ccccc2)c(=O)c1/C=N/NC(=O)COc1ccccc1[N+](=O)[O-] [MLS000592191] | > 300 µM
CS(=O)(=O)N1CCN(c2cccc(Cl)n2)CC1 [MLS000594331] | > 300 µM
Fc1ccc(CSc2ccc3nnc(-c4cccnc4)n3n2)cc1 [MLS000624295] | > 300 µM
CCOC(=O)c1nnn(-c2nonc2N)c1CSc1nnc(N)s1 [MLS000624994] | > 300 µM
CC(C)(C)c1ccc(C=Nn2cnnc2)cc1 [MLS000660819] | > 300 µM
Cc1ccc(-c2nn(-c3ccccc3)cc2CNCc2ccccc2)cc1 [MLS000672046] | > 300 µM
O=C(Nc1ccncc1)c1ccccc1-c1ccccc1 [MLS000672259] | 14.5 µM
CCn1nc(NC(=O)c2cccs2)c2cc3ccccc3nc21 [MLS000674383] | > 300 µM
CCOC(=O)c1ccc(NC(=O)Nc2ccccn2)cc1 [MLS000679333] | > 300 µM
COc1ccc(Cl)cc1-n1c(C)ccc1C [MLS000680869] | > 300 µM
COc1ccc(Nc2nc3ccc(OC)cc3s2)cc1 [MLS000684722] | > 300 µM
CCOC(=O)CNC(=O)CSc1ccc2nnc(-c3ccc(F)cc3)n2n1 [MLS000684782] | > 300 µM
N#Cc1ccc(CSc2nnc(-c3ccncc3)o2)cc1 [MLS000687325] | 15.1 µM
COc1ccc(CNC(=O)CN(Cc2cccs2)C(=O)CCC(=O)Nc2ccccn2)cc1 [MLS000687650] | 13.4 µM
NC(=O)c1ccc(N2CCCCCC2)c([N+](=O)[O-])c1 [MLS000688695] | > 300 µM
CC1(C)CC(=O)C(C2(O)C(=O)Nc3ccccc32)CO1 (stereo not given) [MLS000689086] | > 300 µM
O=C(O)Cc1sc(N[N-][CH+]c2ccc(-c3ccc(Cl)c([N+](=O)[O-])c3)o2)nc1O [MLS000689975] | > 300 µM
CCOC(=O)Cc1csc(NC(=O)CSc2nc(-c3ccccc3)c(C#N)c(=O)[nH]2)n1 [MLS000690700] | > 300 µM
O=NCc1ccc(Oc2cccc(Cl)c2)c([N+](=O)[O-])c1 [MLS000694755] | 38.2 µM
COc1cccc(CCNC(=O)c2ccc(C#N)cc2)c1 [MLS000696427] | > 300 µM
CC(C)=CCc1cc([C@@H]2CC(=O)c3ccc(O)c(CC=C(C)C)c3O2)ccc1O [MLS000697605] | 58.4 µM
CC(C)=CCc1c(O)cc2c(c1O)C(=O)CC(c1ccccc1)O2 (stereo not given) [MLS000697639] | > 300 µM
COc1ccc(Cl)cc1-c1nc(N)nc(N(C)C)n1 [MLS000698391] | > 300 µM

Compound | EC50
S=C1Nc2cc(Cl)ccc2Sc2ccccc21 [MLS000698392] | > 300 µM
COc1ccc(Cl)cc1-c1nc(N)nc(NC2CCCCC2)n1 [MLS000698409] | > 300 µM
COc1cc(-c2n[nH]c3c2C(c2ccco2)C(C#N)C(=N)O3)cc(OC)c1OC (stereo not given) [MLS000698887] | 8.59 µM
O=C(C1CCCO1)N1N=C(c2ccc(Br)cc2)CC1c1ccco1 (stereo not given) [MLS000699386] | > 300 µM
COc1cc([CH-]N=[O+]C)ccc1Oc1ccc([N+](=O)[O-])cc1[N+](=O)[O-] [MLS000699890] | > 300 µM
CC(CC(=O)NCc1ccccc1)=NNC(=O)c1cnccn1 [MLS000701004] | > 300 µM
Cc1ccc(NC(=O)CSCc2ccc(F)cc2)cc1 [MLS000701707] | > 300 µM
O=C(CN1C(=O)CCC1=O)Nc1cccc2c1C(=O)NC2=O [MLS000703473] | 2.36 µM
CCOc1ccccc1N1CCN(S(=O)(=O)c2cc(C)ccc2OC)CC1 [MLS000703554] | > 300 µM
CCn1c(-c2nn(C)cc2Cl)n[nH]c1=S [MLS000703969] | > 300 µM
N#Cc1c(-c2cccs2)nc(SCc2ccc(Cl)cc2)[nH]c1=O [MLS000705749] | > 300 µM
O=C(Nc1cccc(NC(=O)c2ccc3c(c2)OCO3)c1)c1ccccc1 [MLS000706176] | > 300 µM
CN(C)/C=C/C(=O)c1cnc(-c2cccc(Cl)c2)s1 [MLS000706958] | > 300 µM
O=C(O)CCn1cc(C=C2C(=O)NC(=S)NC2=O)c(-c2ccccc2)n1 [MLS000707577] | > 300 µM
O=C(Cc1ccccc1)Nc1ccc(N2CCOCC2)cc1 [MLS000707957] | > 300 µM
O=C(NCCO)Nc1ccc2nsnc2c1 [MLS000708760] | > 300 µM
Cn1ncc(Br)c1C(=O)Nc1cccc(C(F)(F)F)c1 [MLS000711234] | > 300 µM
COc1cc(C=C2SC(Nc3ccc(O)cc3)=NC2=O)cc(OC)c1O [MLS000715043] | > 300 µM
CCc1ccc(C2NC(=S)N=C3CC(C)(C)CC(=O)C32)cc1 (stereo not given) [MLS000720309] | > 300 µM
O=[N+]([O-])c1ccccc1Oc1ccc(Cl)c2cccnc12 [MLS000721853] | > 300 µM
COc1ccc(-c2nnc(NC(=O)C3=COCCO3)o2)cc1 [MLS000722006] | > 300 µM
COc1cccc(C(=O)NCC(=O)NN=C(C)C=Cc2ccccc2)c1 [MLS000723417] | > 300 µM
c1ccc(CSc2ccc3nnc(-c4cccnc4)n3n2)cc1 [MLS000724858] | > 300 µM
COC(=O)c1nnn(-c2nonc2N)c1CSc1nnc(C)s1 [MLS000728193] | 45.7 µM

Compound | EC50
CC(=O)N1CCC(=O)Nc2ccc([N+](=O)[O-])cc21 [MLS000728217] | > 300 µM
CC(C(=O)Nc1cccnc1)n1cc([N+](=O)[O-])cn1 (stereo not given) [MLS000729046] | > 300 µM
Cc1cc(CNC(=O)c2cc(COc3c(F)cccc3F)on2)nn1C [MLS000734261] | > 300 µM
CCOc1cc(C2c3c(n[nH]c3C)N=C3CC(C)(C)CC(=O)C32)ccc1O (stereo not given) [MLS000736418] | 3.32 µM
O=C1N=c2cc(Cl)ccc2=C1NNc1ccc(C(=O)O)cc1 [MLS000759696] | 19.1 µM
Cc1cnc(NC(=O)c2sc(Nc3ccccc3)nc2N)o1 [MLS000762724] | 9.59 µM
CCCc1cc(NCc2ccccn2)n2nc(C)c(-c3ccccc3)c2n1 [MLS000762884] | > 300 µM
CC(N=O)c1ncc(C(F)(F)F)cc1Cl (stereo not given) [MLS000763457] | > 300 µM
O=C(NNC(=O)C1CC1)c1cc2cc3ccccc3nc2s1 [MLS000763570] | > 300 µM
Cc1ccc(OCCn2c(S)nc3c(N)ncnc32)cc1 [MLS000765129] | > 300 µM
CN(CCO)S(=O)(=O)c1ccc2c(c1)C(=NNC(N)=O)c1cc(S(=O)(=O)N(C)CCO)ccc1-2 [MLS000766695] | > 300 µM
O=C(NNC(=O)C1[C@H]2CCCC[C@@H]12)c1ccc(=O)oc1 (stereo not given in full) [MLS000768334] | > 300 µM
O=C1N=C(Nc2ccccc2)SC1=Cc1cccnc1 [MLS000768418] | > 300 µM
COc1ccc(OC)c(C=NNC(=O)CCc2c(C)n[nH]c2C)c1 [MLS000769019] | > 300 µM
Cc1ccc(Nc2nc(-c3ccncc3)nc3ccccc23)cc1 [MLS000769531] | > 300 µM
Nc1nc(NCC2CCCO2)nc(Nc2ccccc2F)c1[N+](=O)[O-] (stereo not given) [MLS000769541] | 2.33 µM
Cc1nn(-c2ccccc2)c2c1cc1c(=O)n(C)c(=O)nc-1n2-c1ccccc1F [MLS000769580] | 106 µM
Nc1nc(NCCCN2CCOCC2)nc(Nc2cccc(Cl)c2)c1[N+](=O)[O-] [MLS000769815] | 4.25 µM
Nc1nc(NCCCN2CCOCC2)nc(Nc2ccccc2F)c1[N+](=O)[O-] [MLS000769816] | 1.27 µM
Nc1nc(NCc2ccco2)nc(NC2CCCCC2)c1[N+](=O)[O-] [MLS000769818] | > 300 µM
O=C1CN(c2nc(-c3cccnc3)nc3sc4c(c23)CCCC4)CCN1 [MLS000772211] | 24.8 µM
CCOC(=O)C1CCN(c2cc(C)nc3ccc(OC)cc23)CC1 [MLS000772886] | > 300 µM
CN(C)S(=O)(=O)c1cc(NC(=O)CN2CCN(c3ccc(O)cc3)CC2)ccc1Cl [MLS000774170] | > 300 µM
O=C(O)/C=C/c1cn(-c2ccccc2)nc1-c1cccc([N+](=O)[O-])c1 [MLS000774824] | > 300 µM

Compound | EC50
O=C(O)c1cccc(-c2ccc(CN=Nc3ccc([N+](=O)[O-])cc3)o2)c1 [MLS000777078] | > 300 µM
COc1cc(C=C2SC(Nc3ccc(O)cc3)=NC2=O)ccc1O [MLS000778276] | 23.3 µM
CCN(CC)Cc1c(O)ccc2c1O/C(=C\C=C\c1ccccc1)C2=O [MLS000779120] | > 300 µM
CC1(C)CC(CCNC(=O)CCl)(c2ccccc2)CCO1 (stereo not given) [MLS000779552] | > 300 µM
COc1cc(/C=N/NC(=O)c2ccccc2F)ccc1Oc1ccc([N+](=O)[O-])cn1 [MLS000779573] | > 300 µM
COc1cc(/C=N/NC(=O)c2cccc(Cl)c2)ccc1Oc1ccc([N+](=O)[O-])cn1 [MLS000779574] | > 300 µM
O=c1c2c3c(sc2n2c(S)nnc2n1-c1ccccc1)CCC3 [MLS000779668] | 34 µM
COC(=O)C1=C(C)N(Cc2ccccc2)C(NCc2ccc(OC)cc2)=N[C@H]1c1cccc(F)c1 [MLS000829932] | > 300 µM
CSc1nc(-c2cccs2)c(C#N)c(=O)[nH]1 [MLS000849828] | > 300 µM
CC(=O)Nc1ccc(S(=O)(=O)Nc2ccc3c(c2)OCCO3)cc1Cl [MLS000850184] | > 300 µM
O=C(CCc1ccccc1)Nc1cccc([N+](=O)[O-])c1 [MLS000856399] | > 300 µM
O=[N+]([O-])c1cc(Cl)ccc1N1CCCCC1 [MLS000856435] | > 300 µM
COc1cccc(Nc2ncc(C#N)c(N)n2)c1 [MLS000858965] | 14.3 µM
COc1cccc(C(=O)C(C#N)=C(SC)SC)c1 [MLS000859112] | > 300 µM
Cc1nccc(-c2cccc(NC(=O)c3ccccc3Cl)c2)n1 [MLS000859188] | > 300 µM
CSc1nnnn1-c1c(C)cccc1C [MLS000861118] | > 300 µM
CC(C)CCSc1nnc(N)s1 [MLS000861787] | > 300 µM
Cc1csc2c(=O)n(CCO)c(=O)[nH]c12 [MLS000861875] | > 300 µM
CN1CCc2c(sc(NC(=O)Cc3ccccc3)c2C(N)=O)C1 [MLS000879155] | > 300 µM
CC(=O)N1CCc2c(sc(NC(=O)Cc3ccccc3)c2C(N)=O)C1 [MLS000879211] | 24.4 µM
O=C(Nc1cccc(F)c1)c1cccc2c1C(=O)N(C1CCCCC1)C2 [MLS000912875] | > 300 µM
COc1ccc(C(=O)N/C(=C\c2ccco2)C(=O)NCCN2CCOCC2)cc1 [MLS000923740] | > 300 µM
Nc1nonc1-n1nnc(C(=O)NN=Cc2cccc(F)c2)c1CN1CCCC1 [MLS000948239] | > 300 µM
